# Measured values from patent publication US20250120986A1, “STEROL THERAPY” (UCL BUSINESS LTD, priority 2021, published 2025).
# Tests used:
# H9C2 cell line = test: Western blot of ERK2 phosphorylation after adrenaline treatment (adrenergic signalling); format: cell-based, rat; conditions: for ERK2 phosphorylation after adrenaline treatment: H9C2 depleted with MßCD, then incubated with sterol
# Method: (§1) Cells were incubated in 5 mM solution MßCD in DMEM for 30 minutes. Before treatment cells were washed twice with prewarmed PBS to remove remaining FBS and prevent contamination of exogenous cholesterol.
# After MßCD treatment cells were washed twice with prewarmed PBS to remove remaining MßCD solution and then incubated for 4 hours with either (i) complex Cholesterol—MßCD or (ii) Sitosterol—MßCD. These were prepared according to the protocol reported by Klein et al. (Biochemistry 1995; 34:13784). Sterol complexes were diluted ×100 in DMEM to produce final concentrations of 68 microM cholesterol, 68 microM sitosterol and 700 microM MßCD.
# Control, MßCD or MßCD/sterol-treated cells were incubated for 10 minutes with adrenaline or noradrenaline solution in DMEM (final concentration 10^−7M).
# Cells were washed and lysed on plates with RIPA buffer supplemented by protease and phosphatase inhibitors on ice for 30 minutes. Lysates were treated as described above for sterol determination. Protein concentration was determined by BCA assay. Western blot samples were prepared by mixing the lysates with 5× loading buffer (Tris HCl pH 6.8 312.5 mM, SDS 10%, bME 12.5%, glycerol 47.5%, bromophenol blue 0.01%). 2 mcg of protein/sample was separated by electrophoresis on 10% SDS-PAGE and transferred to a PVDF membrane. Membrane was blocked with 5% BSA in TBST for 1 hour at room temperature with gentle agitation and incubated with primary anti-pERK or anti-PFK antibodies overnight at 4° C. Both primary antibodies were diluted 2000 times in 5% BSA in TBST. […]
# Chemiluminescent detection was performed using the Clarity TM Western ECL Substrate (Bio-Rad). Band intensity was analysed by Image Studio Lite ver5.2. Results are calculated as a ratio of intensities of pERK2 band to PFK band for each sample and normalized as a percentage from the average of samples treated with adrenaline only.
# H9C2 cardiomyocyte cells = test: Sterol concentration in H9C2 cells after MßCD depletion (Amplex Red / BCA); format: cell-based, rat; conditions: sterol-MßCD complex, 68 microM sterol, 4 hours
# Method: Rat embryonic cardiomyocyte H9C2 cells were cultured in high-glucose DMEM (Gibco 41965-039) supplemented with 10% fetal bovine serum (FBS, Gibco 10270-106) and 100 U/ml of penicillin/streptomycin at 37° C. in a humidified atmosphere of 5% CO2. Cells were split every 2-3 days.
# Two days prior to experimentation, cells were seeded in 6 well plates (Corning N-3516) 3×10^5 cells/well. Before any treatment. cells were washed twice with prewarmed PBS.
# as §1
# After MßCD treatment cells were washed twice with prewarmed PBS to remove remaining MßCD solution and then incubated for 4 hours with either (i) complex Cholesterol—MßCD or (ii) Sitosterol—MßCD. These were prepared according to the protocol reported by Klein et al. (Biochemistry 1995; 34:13784). […]
# After incubation MßCD-treated, MßCD/Sterol treated, and untreated (control) cells were washed twice with ice-cold PBS and lysed with phosphate buffer (0.1 M potassium phosphate pH 7.4, 50 mM NaCl, 5 mM cholic acid, 0.1% Triton X-100, protease inhibitors) on ice. […] Protein and sterol concentrations were measured by BCA and Cholesterol Amplex Red assays, respectively. […]
# [1] = test system: sham-operated rats and septic rats; test: Catecholamine responsiveness study (dobutamine / noradrenaline challenge) in rat faecal peritonitis model; format: in vivo; conditions: 10 minutes after commencement of infusion
# Method: II. Sepsis was induced in awake, instrumented male Wistar rats (316±23.5 g) as described above but using 7 microL of faecal slurry/g body weight. Rats were allocated into sham-operated (control), sepsis and sepsis+cholesterol groups.
# At 6 h post-induction of sepsis, the sepsis+cholesterol group received an i.v. infusion of a cholesterol-loaded formulation, either liposomal- or bovine HDL (10 mg cholesterol/300 g bw), which was continued over 15 hours.
# At 21 h, catecholamine responsiveness was tested by consecutively administering, under isoflurane anaesthesia, the beta-adrenergic agonist, dobutamine (10 μg/kg/min for 10 min) and then the predominant alpha-adrenergic agonist, norepinephrine (0.5 μg/kg/min for 10 min) with a 30 min washout period in between.
# Blood pressure (measured continuously from an indwelling carotid line), heart rate and stroke volume (measured by echocardiography) were measured before and at 10 minutes after each drug was infused.
# H9C2 cardiomyocytes = test: ERK1 and ERK2 phosphorylation after dobutamine treatment (adrenergic signalling); format: cell-based, rat; conditions: H9C2 treated with MßCD alone
# Method: Adrenergic signalling was evaluated in the H9C2 cardiomyocytes by the increase of ERK1 and ERK2 phosphorylation after dobutamine treatment.
# [2] = septic rats, 21 h post-faecal peritonitis
compound,measurement,setting,value
"CC[C@H](CC[C@@H](C)[C@H]1CC[C@H]2[C@@H]3CC=C4C[C@@H](O)CC[C@]4(C)[C@H]3CC[C@]12C)C(C)C [sitosterol, Sitosterol]",ERK2 phosphorylation after adrenaline treatment,H9C2 cell line,2 × normal
same,cellular sterol content after MßCD depletion,H9C2 cardiomyocyte cells,Sterol content was restored
CC(CCc1ccc(O)cc1)NCCc1ccc(O)c(O)c1 (stereo not shown) [dobutamine],stroke volume response to the agonist,[1]; [2],non-responsive
same,stroke volume response to the agonist,[1]; sham animals,significant rises
NC[C@H](O)c1ccc(O)c(O)c1 [noradrenaline],blood pressure response to the agonist,[1]; [2],non-responsive
same,blood pressure response to the agonist,[1]; sham animals,significant rises
Methyl-β-cyclodextrin [MßCD],ERK2 phosphorylation after adrenaline treatment (in words),"H9C2 cell line; H9C2, 5 mM MßCD for 30 minutes",decreased ERK2 phosphorylation
same,phosphorylation of ERK1 and ERK2 after dobutamine treatment,H9C2 cardiomyocytes,decreased phosphorylation of both ERK1 and ERK2
"CC(C)CCC[C@@H](C)[C@H]1CC[C@H]2[C@@H]3CC=C4C[C@@H](O)CC[C@]4(C)[C@H]3CC[C@]12C [cholesterol, Cholesterol]",ERK2 phosphorylation after adrenaline treatment,H9C2 cell line,2 × normal
same,cellular sterol content after MßCD depletion,H9C2 cardiomyocyte cells,Sterol content was restored
